Results published in patent publication US11634409B2, “Compounds for the treatment of BRAF-associated diseases and disorders” (Array BioPharma Inc., priority 2019, dated 2023).
Like-named read-outs stand apart in the source and are kept apart here.

Columns and labels:
[1] = biological target: T1, P-gp (MDR1) (Homo sapiens (Human), UniProt P08183); experiment: MDR1 efflux ratio in MDR1 transfected LLC-PK1 cells; conditions: for MDR1 efflux ratio: Papp(B−A)/Papp(A−B), MDR1 transfected LLC-PK1 cells, 1 μM; for efflux ratio at 2 h, 1 μM: pig, LLC-PK1
T1 sequence (P08183 whole entry, species assumed): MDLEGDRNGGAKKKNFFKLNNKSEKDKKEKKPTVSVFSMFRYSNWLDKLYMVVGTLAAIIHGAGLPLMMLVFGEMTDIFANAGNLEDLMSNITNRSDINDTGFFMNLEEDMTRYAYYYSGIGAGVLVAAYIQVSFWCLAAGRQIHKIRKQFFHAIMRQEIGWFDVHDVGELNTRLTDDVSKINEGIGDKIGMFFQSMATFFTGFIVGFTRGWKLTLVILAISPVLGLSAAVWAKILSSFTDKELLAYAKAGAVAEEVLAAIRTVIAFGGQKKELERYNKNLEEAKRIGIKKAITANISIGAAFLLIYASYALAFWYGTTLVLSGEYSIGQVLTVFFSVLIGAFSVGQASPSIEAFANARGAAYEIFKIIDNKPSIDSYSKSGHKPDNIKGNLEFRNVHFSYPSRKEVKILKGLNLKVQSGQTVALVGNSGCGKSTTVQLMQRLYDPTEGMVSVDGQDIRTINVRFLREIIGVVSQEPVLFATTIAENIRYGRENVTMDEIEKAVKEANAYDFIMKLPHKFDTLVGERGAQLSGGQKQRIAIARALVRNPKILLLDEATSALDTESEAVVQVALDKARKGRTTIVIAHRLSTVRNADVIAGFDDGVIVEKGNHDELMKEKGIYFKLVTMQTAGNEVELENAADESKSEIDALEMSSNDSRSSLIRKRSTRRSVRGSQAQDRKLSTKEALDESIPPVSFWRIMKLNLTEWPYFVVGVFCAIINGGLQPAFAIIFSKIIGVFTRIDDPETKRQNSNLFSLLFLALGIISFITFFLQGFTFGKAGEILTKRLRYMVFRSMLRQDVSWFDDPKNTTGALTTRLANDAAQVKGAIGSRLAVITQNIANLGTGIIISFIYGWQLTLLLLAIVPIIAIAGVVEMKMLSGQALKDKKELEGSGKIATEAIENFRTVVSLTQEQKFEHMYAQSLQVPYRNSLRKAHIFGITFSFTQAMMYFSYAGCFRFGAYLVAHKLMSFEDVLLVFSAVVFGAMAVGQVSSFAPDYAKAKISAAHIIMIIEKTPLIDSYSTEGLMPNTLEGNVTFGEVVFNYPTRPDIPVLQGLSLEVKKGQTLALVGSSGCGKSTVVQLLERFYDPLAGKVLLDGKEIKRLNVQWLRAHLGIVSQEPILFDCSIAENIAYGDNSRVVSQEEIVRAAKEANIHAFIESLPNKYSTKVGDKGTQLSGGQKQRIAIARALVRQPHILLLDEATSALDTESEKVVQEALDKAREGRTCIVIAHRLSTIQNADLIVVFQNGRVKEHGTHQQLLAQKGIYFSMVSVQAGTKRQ
Experimental: (§4) Both LLC-PK1 and MDR1 transfected LLC-PK1 cells were cultured and plated according to manufacturer's recommendations with the exception that the passage media contained only 2% fetal bovine serum to extend passage time out to seven days.
(§5) Both positive and negative controls were used to assess functionality of P-gp or BCRP efflux in the assays. […] Final organic concentration in the assay was 1%. All dosing solutions contained 10 μM lucifer yellow to monitor LLC-PK1 or MDCKII cell monolayer integrity.
(§6) For the apical to basolateral determination (A to B), 75 μL of the test article in transport buffer were added to the apical side of the individual transwells and 250 μL of basolateral media, without compound or lucifer yellow, were added to each well. For the basolateral to apical determination (B to A), 250 μL of test article in transport buffer were added to each well and 75 μL transport buffer, without compound or lucifer yellow, were added to each transwell. All tests were performed in triplicate, and each compound was tested for both apical to basolateral and basolateral to apical transport. The plates were incubated for 2 hours on a Lab-Line Instruments Titer Orbital Shaker (VWR, West Chester, Pa.) at 50 rpm and 37° C. with 5% CO2. All culture plates were removed from the incubator and 50 μL of media were removed from the apical and basolateral portion of each well and added to 150 μL of 1 μM labetalol in 2:1 acetonitrile (acetonitrile): H2O, v/v.
(§7) These values were accepted when found to be below 2% for apical to basolateral and 5% basolateral to apical flux across the MDR1-transfected LLC-PK1 or BCRP-transfected MDCKII cell monolayers. The plates were sealed and the contents of each well analyzed by LC-MS/MS. The compound concentrations were determined from the ratio of the peak areas of the compound to the internal standard (labetalol) in comparison to the dosing solution.
(§8) The LC-MS/MS system was comprised of an HTS-PAL autosampler (Leap Technologies, Carrboro, N.C.), an HP1200 HPLC (Agilent, Palo Alto, Calif.), and a MDS Sciex 4000 Q Trap system (Applied Biosystems, Foster City, Calif.). […] The total run time, including re-equilibration, for a single injection was 1.2 minutes. Mass spectrometric detection of the analytes was accomplished using the ion spray positive mode.
(§9) An efflux ratio is calculated from the mean apical to basolateral (A-B) Papp data and basolateral to apical (B-A) Papp data: Efflux ratio=Papp(B−A)/Papp(A−B)

[2] = biological target: full-length FLAG-tagged B-Raf(V600E) (Homo sapiens (Human), UniProt P15056, V600E); experiment: BRAF V600E enzyme assay (TR-FRET competitive displacement); assay type: binding; conditions: averaged IC50; 60 min, ambient temperature
full-length FLAG-tagged B-Raf(V600E), sequence (P15056 whole entry V600E): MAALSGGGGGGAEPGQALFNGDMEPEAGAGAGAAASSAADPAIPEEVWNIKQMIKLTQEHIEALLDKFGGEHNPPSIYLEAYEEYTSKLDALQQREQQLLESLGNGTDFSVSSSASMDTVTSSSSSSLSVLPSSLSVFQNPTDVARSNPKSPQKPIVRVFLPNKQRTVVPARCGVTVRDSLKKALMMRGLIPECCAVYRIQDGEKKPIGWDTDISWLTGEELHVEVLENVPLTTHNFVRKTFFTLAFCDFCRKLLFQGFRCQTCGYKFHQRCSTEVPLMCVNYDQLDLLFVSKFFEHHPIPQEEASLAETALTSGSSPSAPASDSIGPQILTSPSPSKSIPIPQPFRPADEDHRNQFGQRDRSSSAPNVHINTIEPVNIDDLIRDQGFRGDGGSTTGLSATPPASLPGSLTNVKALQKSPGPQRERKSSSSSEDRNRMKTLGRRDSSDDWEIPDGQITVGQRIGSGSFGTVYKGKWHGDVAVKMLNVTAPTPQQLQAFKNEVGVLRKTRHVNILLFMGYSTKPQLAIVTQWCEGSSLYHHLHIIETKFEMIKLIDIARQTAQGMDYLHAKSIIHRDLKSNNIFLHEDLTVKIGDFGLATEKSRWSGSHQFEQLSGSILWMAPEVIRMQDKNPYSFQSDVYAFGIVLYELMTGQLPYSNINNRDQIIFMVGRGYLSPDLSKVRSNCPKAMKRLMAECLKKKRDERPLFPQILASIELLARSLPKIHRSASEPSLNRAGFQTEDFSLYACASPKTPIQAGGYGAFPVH
Source text: (§1) A competitive displacement assay was configured for B-Raf that monitors the amount of a fluorescently-tagged “tracer” bound to B-Raf via TR-FRET from an anti-tag Eu-labeled antibody also bound to B-Raf.
(§2) [formula] • where: • Xmax Average Uninhibited Controls • Xm Average Background
(§3) A 4-parameter logistic model was the fit to the POC data for each compound.

[3] = tested on: LLC-PK1 or MDCKII cell monolayer; experiment: MDR1 LLC-PK1 and BCRP MDCKII permeability assay (Papp); conditions: Papp; test article 1 μM, 2 hours, 37° C.
Experimental: (§10) MDR1 LLC-PK1 and BCRP MDCKII Permeability Assay
as §4
(§11) BCRP transfected MDCKII cells were cultured and plated according to manufacturer's recommendations. Assay conditions included with and without the BCRP-specific inhibitor, KO0143, at a concentration of 0.3 μM to ascertain the contribution of BCRP to the efflux value of the test compound.
as §5, §6, §7, §8
(§12) where Cd, V, t and C0 are the detected concentration (μM), the volume on the dosing side (mL), the incubation time (s) and the initial dosing concentration (μM), respectively. The calculations for Papp were made for each replicate and then averaged.

[4] = biological target: T2, BCRP (Homo sapiens (Human), UniProt Q9UNQ0); experiment: BCRP efflux ratio in BCRP transfected MDCKII cells; conditions: for BCRP efflux ratio: Papp(B−A)/Papp(A−B), BCRP transfected MDCKII cells, 1 μM; for efflux ratio at 2 h, 1 μM: dog
T2 sequence (Q9UNQ0 whole entry, species assumed): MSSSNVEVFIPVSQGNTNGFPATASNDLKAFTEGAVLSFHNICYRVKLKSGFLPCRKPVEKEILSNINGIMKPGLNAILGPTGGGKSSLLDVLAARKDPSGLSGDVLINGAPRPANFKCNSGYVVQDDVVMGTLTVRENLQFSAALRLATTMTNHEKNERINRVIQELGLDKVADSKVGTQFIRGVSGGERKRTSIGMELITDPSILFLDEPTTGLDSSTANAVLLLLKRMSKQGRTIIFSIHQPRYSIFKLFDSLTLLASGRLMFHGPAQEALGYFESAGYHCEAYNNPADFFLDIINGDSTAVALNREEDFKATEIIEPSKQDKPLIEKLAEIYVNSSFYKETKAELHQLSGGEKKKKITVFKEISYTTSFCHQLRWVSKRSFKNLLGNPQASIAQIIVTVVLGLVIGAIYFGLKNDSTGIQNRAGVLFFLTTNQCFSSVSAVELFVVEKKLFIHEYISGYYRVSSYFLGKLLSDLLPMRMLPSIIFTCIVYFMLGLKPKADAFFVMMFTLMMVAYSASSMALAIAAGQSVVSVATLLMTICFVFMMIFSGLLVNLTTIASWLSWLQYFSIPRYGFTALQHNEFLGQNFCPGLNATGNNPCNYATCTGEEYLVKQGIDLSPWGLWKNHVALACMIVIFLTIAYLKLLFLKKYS
Experimental: as §10, §11, §5, §6, §7, §8, §9

[5] = tested on: LLC-PK1 or MDCKII cell monolayer
Experimental: as §10, §4, §11, §5, §6, §7, §8, §12

[6] = biological target: T1, P-gp (MDR1); conditions: pig, LLC-PK1, 2 h, 1 μM
Experimental: as §4, §5, §6, §7, §8, §9

[7] = biological target: T2, BCRP; conditions: dog, 2 h, 1 μM
Experimental: as §10, §11, §5, §6, §7, §8, §9

[8] = tested on: BCRP; conditions: reported by Mittapalli et al.; cited from earlier work
[9] = tested on: A375-luciferase intracranial tumor xenografts; experiment: Intracranial A375-luciferase efficacy and survival mouse tumor model; assay type: in vivo, Female nu/nu NCr mice; conditions: BID PO 60 consecutive days, FIG. 15
Experimental: Female nu/nu NCr mice from Envigo (Indianapolis, Ind.) were obtained at 5-6 weeks of age and housed in groups of 5. Following a one week minimum acclimation period, mice received orthotopic (i.c.) intracranial injections of 3.0×10^3 A375-luciferase tumor cells suspended in a volume of 10 μL 0.9% sterile Dulbecco's phosphate buffered saline (DPBS) using the top-down approach (Laursen and Belknap, 1986). Seven days post cell implant (Day 1), animals were randomized and sorted into five groups (n=10/group).
Test compounds were given at a dose volume of 10 mL/kg, and vehicles were matched for each group to control for dosing stress, i.e. all groups received twice daily (BID) dose administration by oral gavage (PO) at the relevant dose volumes and schedule shown in Table 9. Tumor growth was monitored by measuring luciferase activity twice per week. Total flux/mouse can vary by an order of magnitude on day 1 of study start (start of dosing). The total flux was normalized per mouse by assigning the first measurement of flux on day 2 as 100%. Body weight loss as an indicator of tumor progression was determined daily during the dosing interval and then as needed (at least once weekly). Survival was evaluated through day 90 (30 days post-dosing cessation).

[10] = biological target: GST-tagged B-Raf(V600K) (Homo sapiens, UniProt P15056, V600K); experiment: BRAF V600K enzyme assay (TR-FRET competitive displacement); assay type: binding; conditions: averaged IC50; 60 min, ambient temperature
GST-tagged B-Raf(V600K), sequence (P15056 2-766 V600K limits assumed): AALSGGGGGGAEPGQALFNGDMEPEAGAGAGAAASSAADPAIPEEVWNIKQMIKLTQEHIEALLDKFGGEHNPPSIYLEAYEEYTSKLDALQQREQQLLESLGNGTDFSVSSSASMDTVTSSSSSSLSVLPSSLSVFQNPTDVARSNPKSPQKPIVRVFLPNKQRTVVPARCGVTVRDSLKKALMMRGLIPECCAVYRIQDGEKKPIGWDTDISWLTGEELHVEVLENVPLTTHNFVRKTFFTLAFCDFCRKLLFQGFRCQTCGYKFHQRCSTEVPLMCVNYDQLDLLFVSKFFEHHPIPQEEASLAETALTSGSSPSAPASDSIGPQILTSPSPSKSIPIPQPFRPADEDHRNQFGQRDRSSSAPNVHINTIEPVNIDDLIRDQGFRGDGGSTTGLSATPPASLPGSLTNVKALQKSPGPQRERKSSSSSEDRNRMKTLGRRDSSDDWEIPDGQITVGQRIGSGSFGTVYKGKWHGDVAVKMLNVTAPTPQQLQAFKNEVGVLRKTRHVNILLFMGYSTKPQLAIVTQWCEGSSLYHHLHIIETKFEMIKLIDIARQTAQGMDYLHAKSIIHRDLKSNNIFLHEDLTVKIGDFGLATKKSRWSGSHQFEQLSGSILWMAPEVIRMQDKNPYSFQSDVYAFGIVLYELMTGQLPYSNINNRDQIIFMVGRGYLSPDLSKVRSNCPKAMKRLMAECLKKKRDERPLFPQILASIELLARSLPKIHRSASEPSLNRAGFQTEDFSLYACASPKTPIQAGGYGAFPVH
Source text: as §1, §2, §3

[11] = PK (free brain-to-free plasma ratio) (mouse); assay type: in vivo; conditions: male CD-1 mice, oral gavage 10 mg/kg, (B/P)*(Bfu/Pfu)
Experimental: PK (Free Brain-to-Free Plasma Ratio) (Mouse)
The ability of representative compounds to penetrate the BBB in mice was determined by evaluating the unbound brain-to-unbound plasma (also referred to as free brain-to-free plasma) concentration ratio in male CD-1 mice.
Brain samples were stored at −20±5° C. prior to analysis. Concentrations of test compound in mouse brain homogenate were determined by liquid chromatography tandem mass spectrometry (LC-MS/MS) following protein precipitation with acetonitrile. A 12-point calibration curve, ranging from 0.5 to 10,000 ng/mL, was prepared in duplicate. A solution of 400 μg/mL of test compound in dimethyl sulfoxide (DMSO) was serially diluted (3-fold) in 100% DMSO, and then 2.5 μL of each standard solution was added to 100 μL of naïve male CD-1 mice brain homogenate. To mimic the extraction in the standard curve, 2.5 μL of DMSO was added to all test samples. […]
Brain-to-plasma ratios were calculated using the concentration of compound measured in the brain divided by the concentration of compound measured in the plasma. […] Free brain-to-free plasma ratios were calculated by multiplying the brain-to-plasma ratio by the in vitro brain homogenate free fraction divided by the in vitro plasma free fraction using the following equation: (B/P)*(Bfu/Pfu).

[12] = MDR1 LLC-PK1 and BCRP MDCKII permeability assay (Papp)
Experimental: as §10, §4, §11, §5, §6, §7, §8, §12

Molecule	MDR1 efflux ratio [1]	IC50 [2]	Permeability (*10^−6 cm/s) [3]	BCRP efflux ratio [4]	further results
Cc1c(Nc2c(F)cnc(NS(=O)(=O)CC3CC3)c2F)ccc2ncn(C)c(=O)c12 [Example 42, 1-cyclopropyl-N-(4-((3,5-dimethyl-4-oxo-3,4-dihydroquinazolin-6-yl)amino)-3,5-difluoropyridin-2-yl) methanesulfonamide]	5.26	60.3 nM	18.35 *10^−6 cm/s	23.73	–
N-(3-((3,5-dimethyl-4- oxo-3,4- dihydroquinazolin-6- yl)amino)-2-fluoro-5- methylphenyl)propane- 1-sulfonamide [Example 46]	–	148 nM	–	–	Permeability (*10^−6 cm/s) ([5]; 2 h, 1 μM): 30.74 *10^−6 cm/s; MDR1 efflux ratio [6]: 1.43; BCRP efflux ratio [7]: 1.48
CCN(C)S(=O)(=O)Nc1ccc(F)c(Nc2ccc3ncn(C)c(=O)c3c2C)c1Cl [Example 54, N-(2-chloro-3-((3,5-dimethyl-4-oxo-3,4-dihydroquinazolin-6-yl)amino)-4-fluorophenyl)-N-ethyl-N-methylamino-1-sulfonamide]	–	–	–	–	Permeability (*10^−6 cm/s) [5]: 35.81 *10^−6 cm/s
CC(C)(C)c1nc(-c2cccc(NS(=O)(=O)c3c(F)cccc3F)c2F)c(-c2ccnc(N)n2)s1 [dabrafenib]	–	–	–	–	BCRP efflux ratio [8]: 21.0
N-(2-chloro-3-((3,5- dimethyl-4-oxo-3,4- dihydroquinazolin-6- yl)amino)-4- fluorophenyl) ethanesulfonamide [Example 52]	1.76	226 nM	28.91 *10^−6 cm/s	1.28	–
N-(3-chloro-4-((3,5- dimethyl-4-oxo-3,4- dihydroquinazolin-6- yl)amino)-5- fluoropyridin-2-yl)-1- cyclopropyl- methanesulfonamide [Example 47]	1.84	41.7 nM	25.7 *10^−6 cm/s	7.93	–
CCCS(=O)(=O)Nc1cc(Cl)cc(Nc2ccc3ncn(C)c(=O)c3c2C)c1Cl [Example 48, N-(2,5-dichloro-3-((3,5-dimethyl-4-oxo-3,4-dihydroquinazoli-6-yl)amino)phenyl) propane-1-sulfonamide]	–	–	–	–	Permeability (*10^−6 cm/s) [5]: 25.83 *10^−6 cm/s
Cc1c(Nc2c(F)ccc(NS(=O)(=O)CCCF)c2Cl)ccc2ncn(C)c(=O)c12 [Example 82, N-(2-chloro-3-((3,5-dimethyl-4-oxo-3,4-dihydroquinazolin-6-yl)amino)-4-fluorophenyl)-3-fluoropropane-1-sulfonamide]	–	–	–	–	Tumor growth (total bioluminescence, luciferase activity) [9]: significant effect on tumor growth
N-(2-chloro-3-((3,5- dimethyl-4-oxo-3,4- dihydroquinazolin-6- yl)amino)-4- fluorophenyl)-1- cyclopropyl- methanesulfonamide [Example 50]	1.54	66.1 nM	21.88 *10^−6 cm/s	1.13	–
N-(2-cyano-3-((3,5- dimethyl-4-oxo-3,4- dihydroquinazolin-6- yl)amino)phenyl) propane-1-sulfonamide [Example 53]	–	9.4 nM	–	–	Permeability (*10^−6 cm/s) ([5]; 2 h, 1 μM): 27.13 *10^−6 cm/s; MDR1 efflux ratio [6]: 2.6; BCRP efflux ratio [7]: 22.97
N-(2-chloro-3-((3,5- dimethyl-4-oxo-3,4- dihydroquinazolin-6- yl)amino)-4- fluorophenyl)-2- methylpropane-1- sulfonamide [Example 51]	1.64	63.4 nM	27.16 *10^−6 cm/s	1.28	–
N-(3-chloro-4-((3,5- dimethyl-4-oxo-3,4- dihydroquinazolin-6- yl)amino)-5- fluoropyridin-2- yl)ethanesulfonamide [Example 45]	2.47	137 nM	16.56 *10^−6 cm/s	11.29	–
CCCS(=O)(=O)Nc1ccc(F)c(Oc2ccc3ncn(C)c(=O)c3c2C)c1Cl [Example 55, N-{2-chloro-3-[(3,5-dimethyl-4-oxo-3,4-dihydroquinazolin-6-yl)oxy]-4-fluorophenyl}propane-1-sulfonamide]	–	5.4 nM	–	–	efflux ratio at 2 h, 1 μM [1]: 1.1; IC50 [10]: 3.1 nM; Kp,uu (unbound brain-to-unbound plasma ratio) [11]: 0.46 to 0.51; Papp at 2 h, 1 μM [12]: 23.8 ×10⁻⁶ cm/s; efflux ratio at 2 h, 1 μM [4]: 0.83
CCCS(=O)(=O)Nc1ncc(F)c(Oc2ccc3ncn(C)c(=O)c3c2C)c1Cl [Example 63, N-(3-chloro-4-((3,5-dimethyl-4-oxo-3,4-dihydroquinazolin-6-yl)oxy)-5-fluoropyridin-2-yl)propane-1-sulfonamide]	–	2.8 nM	–	–	efflux ratio at 2 h, 1 μM [1]: 1.3; IC50 [10]: 2.4 nM; Kp,uu (unbound brain-to-unbound plasma ratio) [11]: 0.34 to 0.4; Papp at 2 h, 1 μM [12]: 26.1 ×10⁻⁶ cm/s; efflux ratio at 2 h, 1 μM [4]: 7.7
N-(2-chloro-3-((3,5- dimethyl-4-oxo-3,4- dihydroquinazolin-6- yl)amino)-4- fluorophenyl) benzenesulfonamide [Example 49]	1.24	3.95 nM	30.68 *10^−6 cm/s	0.97	–
N-(2-chloro-3-((3,5- dimethyl-4-oxo-3,4- dihydroquinazolin-6- yl)amino)-5- fluorophenyl)-3- fluoropropane-1- sulfonamide [Example 44]	1.05	6.05 nM	24.2 *10^−6 cm/s	2.84	–
N-(4-((3,5-dimethyl-4- oxo-3,4- dihydroquinazolin-6- yl)amino)-3,5- difluoropyridin-2- yl)ethanesulfonamide [Example 43]	5.24	260 nM	8.75 *10^−6 cm/s	26.02	–
